Results reported in patent publication US11826325B2, “Use of Belinostat or pharmaceutically acceptable salt thereof in preparation of drug for treating infection” (priority 2021, dated 2023).

Assays:
Bacillus subtilis [1] = assay: DAPI staining of Bacillus subtilis; type: cell-based; details: 500 μM, 4 hours
Description: (§1) Before the experiment, an appropriate amount of Belinostat was weighed and dissolved in DMSO to obtain a mother liquid with a concentration of 100 mM. The mother liquid was diluted with an LB medium for use. Bacillus subtilis used in this embodiment was ATCC 23857 strain, and Staphylococcus aureus was methicillin-resistant Staphylococcus aureus ATCC BAA-1761 strain.
(§2) The experiments were performed in EP tubes, and one drug treated group and one blank control group were set. A bacterial solution of Bacillus subtilis cultured in an LB medium was diluted to 5×10^5 CFU/mL with the LB medium, 100 μL of diluted bacterial solution was taken and added to a 1.5 mL EP tube, and then 100 μL of Belinostat solution diluted with the LB medium was added, so that the final drug concentration was 500 μM. DMSO and the LB medium were added to the blank control group, so that the final concentration of the DMSO was 0.5% and a volume of a reaction system was consistent with that of the drug treated group. Three replicate tube were set in each group, and shaking culture was performed at 37° C. for 4 hours. […]

HU protein [2] = molecular target: T1, HU protein (Bacillus subtilis, UniProt P08821); assay: Nuclear magnetism Titration (HSQC) binding experiment; details: 10 μM HU protein, 1 μL of 100 mM Belinostat stock added
Excerpt: (§3) At the molecular level, a binding effect of Belinostat with the HU protein was verified by nuclear magnetism Titration and waterLOGSY experiments. The isoleucine (Ile) at the 71^St site in the HU protein was mutated into alanine (Ala) to obtain a corresponding mutant (hereinafter referred to as “HU^171A protein”), then the waterLOGSY experiment was repeated, and the binding effect of the drug and the mutated HU^171A protein disappeared, proving that a key binding site of the two was the amino acid at the 71st site in the HU protein. Specific experimental steps and experimental results are as follows:
An appropriate amount of Belinostat (MedChemExpress Company) was weighed and dissolved in DMSO-d6 (Solarbio Science & Technology Co., Ltd.) to obtain a stock solution of Belinostat with a concentration of 100 mM for use. 480 μl of solution containing 10 μM of HU protein was taken, 20 μL of D2O was added and mixed evenly, the obtained solution was transferred into a nuclear magnetic resonance tube, and an HSQC spectrogram of the HU protein was recorded on a Brooke 600 MHz nuclear magnetic resonance spectrometer (Avance III). 1 μL of Belinostat stock solution was taken, added into the foregoing nuclear magnetic resonance tube and mixed evenly, and then an HSQC spectrogram was recorded again.

[3] = Mouse superficial skin injury infection model, wound healing; type: in vivo, BALB/c mice; details: mice, low-concentration group 0.1 μM vs high-concentration group 100 μM and fusidic acid group
Description: (§4) Medical tape; 3% chloral hydrate; normal saline; 0.1 μM Belinostat and 100 μM Belinostat (with solvents being 10% glycerin); a commercially available fusidic acid ointment (2% drug content); an LB plate; an independent air supply cage for mice; surgical scissors; tweezers; and a hair removal device.
(§5) 20 female BALB/c mice aged 6-8 weeks were kept in the independent air supply cage.
Back skin of 6-8 week-old female BALB/c mice was depilated with a depilatory paste before modeling, and an exposed skin region with a size of about 1 cm^2 was formed. On the day of modeling, the mice were anesthetized by intraperitoneal injection of 3% chloral hydrate at 10 mL/kg. A same operator pasted the medical adhesive tape to the depilated skin of the mice with basically a same strength, and then tore the medical adhesive tape off. […]
The mice were randomly divided into four groups, which were a blank control (control) group, a low-concentration X group (low-concentration group, with a specific concentration of 0.1 μM), a high-concentration X group (high-concentration group, with a specific concentration of 100 μM), and a fusidic acid group (fusidic acid group, that is, a positive control group), with five mice in each group. All the mice of the blank control group were killed the day before the start of treatment to quantify an amount of bacterial inoculation. […]

Bacillus subtilis [4] = assay: Transmission electron microscope observation of Bacillus subtilis; type: cell-based; details: 500 μM, 4 hours
Description: as §1
(§6) A bacterial solution of Bacillus subtilis cultured in an LB medium was diluted to 5×10^5 CFU/mL with the LB medium, 2.5 mL of diluted bacterial solution was taken and added to a 15 mL centrifuge tube, and then 2.5 mL of Belinostat solution diluted with the LB medium was added, so that the final drug concentration was 500 μM. 25 μL of DMSO and an appropriate amount of LB medium were added to the blank control group (the Control group) to ensure that a volume of a reaction system was consistent with that of the drug treated group (the Treated group). Three replicate tubes were set in each group. Shaking culture was performed at 37° C. for 4 hours, and bacteria were collected by centrifugation. […]

[5] = system: Staphylococcus aureus (ATCC BAA-1761 strain); assay: Mouse superficial skin injury infection model, viable bacterial count on infected wound; type: in vivo; details: mice; for bacterial count in skin lesion site compared with blank control group: topical twice a day for 3 days, p.value=0.0006
Description: as §4, §5
Preparation of a bacterial solution: Staphylococcus aureus (ATCC BAA-1761 strain), preserved by the Laboratory Department of the First Affiliated Hospital of Xi′an Jiaotong University. Before the experiment, Staphylococcus aureus was inoculated in 5 mL of LB and placed in an incubator at 37° C. for shaking culture, and when the amount of bacteria was about 10^7 CFU/mL, the bacteria were taken out for use.
Back skin of 6-8 week-old female BALB/c mice was depilated with a depilatory paste before modeling, and an exposed skin region with a size of about 1 cm^2 was formed. On the day of modeling, the mice were anesthetized by intraperitoneal injection of 3% chloral hydrate at 10 mL/kg. A same operator pasted the medical adhesive tape to the depilated skin of the mice with basically a same strength, and then tore the medical adhesive tape off. The foregoing paste-tear operation was repeated many times to remove stratum corneum, and the adhesive tape needed to be replaced during each paste-tear process. When the skin of the mice became red and shiny, but there was no regular bleeding, the paste was stopped. The foregoing 10 μL of bacterial suspension was evenly applied to the damaged skin of the mice, and the infection lasted for 24 hours to establish the model of superficial skin injury of the mice.
The mice were randomly divided into four groups, which were a blank control (control) group, a low-concentration X group (low-concentration group, with a specific concentration of 0.1 μM), a high-concentration X group (high-concentration group, with a specific concentration of 100 μM), and a fusidic acid group (fusidic acid group, that is, a positive control group), with five mice in each group. All the mice of the blank control group were killed the day before the start of treatment to quantify an amount of bacterial inoculation. The three drug groups were administered twice a day (8:00 am. and 8:00 p.m. respectively) for three consecutive days after the infection. Dosages of the low-concentration X group and the high-concentration X group were 50 μL/time for each mouse, and a dosage of the fusidic acid group was 0.1 g/time for each mouse. […] After the experiment, the mice were killed.
After the mice were killed, a wound of about 1 cm^2 was excised immediately, and put into a tissue homogenizing tube with 1 mL of normal saline and magnetic beads for tissue homogenization. 100 μL of tissue homogenate was diluted with normal saline for 10^1, 10^2, 10^3, and 10^4 times gradient, and then 100 μL of each diluted solution was evenly spread on an LB plate. After inverted overnight culture for 12-24 hours, colonies were counted and the count was converted into bacterial content (CFU/cm^2) per square centimeter of tissue.

[6] = system: Staphylococcus aureus (ATCC BAA-1761 strain); assay: DAPI staining of Staphylococcus aureus; type: cell-based; details: 500 μM, 4 hours, methicillin-resistant strain
Description: as §1, §2

Staphylococcus aureus = assay: Transmission electron microscope observation of Staphylococcus aureus; type: cell-based; details: 500 μM, 4 hours
Description: as §1, §6

HU^171A protein = HU^171A protein (Bacillus subtilis, UniProt P08821, I71A); assay: waterLOGSY 1D NMR binding experiment, mutated HU protein; details: 10 μM protein, pH 6.5 buffer
Excerpt: as §3
(§7) 1 μL of the foregoing Belinostat stock solution was taken, 479 μL of buffer solution (300 mM of NaCl and 50 mM of K2HPO4, with the pH of 6.5) and 20 μL of D2O were added and mixed evenly, and then the obtained solution was transferred to the nuclear magnetic resonance tube for use. In addition, two parts of 1 μL of the foregoing Belinostat stock solution were taken, an appropriate amount of HU protein and HU^171A protein were added respectively, then an appropriate amount of buffer solution and 20 μL of D2O were added respectively, so that the total volume of the solution was 500 μL, and the final protein concentration was 10 μm. After uniform mixing, the obtained solutions were transferred to nuclear magnetic resonance tubes for use. […]

HU protein [7] = molecular target: T1, HU protein; assay: waterLOGSY 1D NMR binding experiment, HU protein; details: 10 μM protein, pH 6.5 buffer
Excerpt: as §3, §7

[8] = system: Bacillus subtilis (ATCC 23857 strain); assay: Growth curve of Bacillus subtilis (OD600); type: cell-based; details: 24 hours
Description: as §1
The experiment was performed on a 96-well plate, four groups of drug treated groups and one blank control group (that is, the Control group) were set, and each group had three repeat wells. A bacterial solution of Bacillus subtilis (ATCC 23857 strain) cultured in an LB medium was diluted to 5×10^5 CFU/mL with an LB medium, 15 wells were selected in the middle of the 96-well plate, 100 μL of diluted bacterial solution was added to each well, and then 100 μL of Belinostat solution diluted with the LB medium was added, so that the final drug concentrations in the four drug treated groups were 100 μM, 200 μM, 400 μM, and 500 μM, respectively. DMSO and the LB medium were added to the blank control group, so that the final concentration of the DMSO was 0.5% and a volume of a reaction system was consistent with that of each drug treated group. Shaking culture was performed at 37° C. for 24 hours.
Absorbance at 600 nm was used as an index of a bacterial concentration in the culture solution for determining once every 3 hours. Finally, with OD600 as a vertical coordinate and time as a horizontal coordinate, a bacterial growth curve was drawn.

T1 sequence (P08821 whole entry): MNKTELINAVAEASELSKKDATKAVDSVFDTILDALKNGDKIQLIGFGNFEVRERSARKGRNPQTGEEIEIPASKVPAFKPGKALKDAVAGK
Chain of HU^171A protein (P08821 whole entry I71A): as the sequence (P08821 whole entry) above, with I71A counted along it

O=C(/C=C/c1cccc(S(=O)(=O)Nc2ccccc2)c1)NO [Belinostat, N-hydroxy-3-(3-[(phenylamino)sulfonyl]phenyl)acrylamide]
DAPI staining, nucleus region morphology (Bacillus subtilis [1]): bacterial nucleus region became longer
binding to HU protein (peak migration and peak intensity change in HSQC spectrum) (HU protein [2]): can bind to the HU protein
wound healing speed [3]: significantly faster
transmission electron microscope, cell length and nucleoid regions (Bacillus subtilis [4]): increased to different degrees, and nucleoid regions were scattered in many places in cytoplasm
bacterial load at the skin lesion site, two concentrations ([5]; 0.1 μM and 100 μM, 50 μL/time, twice a day, 3 days): same bactericidal effect
antibacterial ability compared with commercial fusidic acid ([5]; dosage of Belinostat lower than that of fusidic acid): equivalent antibacterial ability
curative effect compared with fusidic acid ([5]; molar dosages much lower than fusidic acid): better than that of the fusidic acid
bacterial count in skin lesion site compared with blank control group [5]: significantly reduced
DAPI staining, nucleus region morphology [6]: bacterial nucleus region was dispersed
transmission electron microscope, nucleoid regions (Staphylococcus aureus): became inconspicuous and showed a loose state
binding to mutated HU^171A protein (waterLOGSY) (HU^171A protein): could not react with the mutated HU protein
binding to HU protein (waterLOGSY peaks reversed into negative peaks) (HU protein [7]): bound to the HU protein
effect on growth of Bacillus subtilis (absorbance at 600 nm vs blank control) ([8]; 200 μM): relatively strong inhibitory effect on bacterial growth
effect on growth of Bacillus subtilis ([8]; 400 μM): almost completely inhibited
effect on growth of Bacillus subtilis ([8]; 500 μM): almost completely inhibited
effect on growth of Bacillus subtilis ([8]; different concentrations (100, 200, 400, 500 μM), 37° C.): inhibitory effect on growth of Bacillus subtilis

CC(=O)O[C@H]1C[C@@]2(C)[C@@H](C[C@@H](O)[C@H]3[C@@]4(C)CC[C@@H](O)[C@@H](C)[C@@H]4CC[C@@]32C)/C1=C(\CCC=C(C)C)C(=O)O [fusidic acid]
bacterial count in skin lesion site compared with blank control group [5]: significantly reduced
